Laboratory results from patent US9682082B2, “Combinations of AKT and MEK inhibitor compounds, and methods of use” (GENENTECH, INC., priority 2011, dated 2017).

Columns and labels:
MALME3 cells = test: Cell viability assay (CellTiter-Glo), MALME3; type: cell-based, human; conditions: MALME3 normal skin fibroblasts
Experimental: (§1) Cells were plated in black, clear-bottomed 384-well plates (Catalog 353962; Becton Dickinson; Franklin Lakes, N.J.) at a density of 1500 cells/well and incubated overnight to 1.5 days at 37° C., 5% CO2. Serial dilutions of GDC-0068, GDC-0973, or both in combination were then added to the cells and incubated for another 96 hours. Cell viability was determined by measuring the cellular adenosine triphosphate (ATP) levels as described in the manufacturer's protocol (CellTiter-Glo Luminescent Cell Viability Assay kit; Catalog G7573; Promega, Madison, Wis.). Luminescence signal was recorded on an EnVision 2101 Multilabel Reader (PerkinElmer; Waltham, Mass.).
(§2) Percentage inhibition was calculated by dividing the relative light unit (RLU) of cells exposed to the GDC-0068 and GCD-0973 combination to the RLU of cells exposed to DMSO and subtracting it from 1, as expressed below: % inhibition=1−(RLUcombination/RLUDMSO)
(§3) BLISS analysis compared the expected % inhibition (E=EGDC-0068+EGDC-0973−EGDC-0068×EGDC-0973) with the experimentally observed % inhibition, EOBS. The BLISS score is the difference (ΔE=EOBS−E) between the expected % inhibition, E, and the experimentally observed inhibition, EOBS.

MALME3M cells = test: Cell viability assay (CellTiter-Glo), MALME3M; type: cell-based, human; conditions: MALME3M B-RAF V600E metastatic melanoma cell line
Experimental: as §1, §2, §3

[1] = test system: A2058 (PTEN null/Braf mutant) melanoma model; test: A2058 melanoma xenograft model, tumor growth inhibition; type: in vivo
Experimental: Methods of measuring TGI are known in the art. In one example method, average tumor volumes are determined and compared from the patient before and after treatment. Tumor volumes can be measured in two dimensions (length and width) using any method in the art, for example UltraCal IV calipers (Fred V. Fowler Company) or by PET (positron emission tomography), or by some other method. The formula tumor volume (mm^3)=(length×width^2)×0.5 can be used. Measuring tumor volumes over multiple time periods can be done using a mixed-modeling Linear Mixed Effects (LME) approach (Pinheiro et al. 2009). This approach can address both repeated measurements (and multiple patients). Cubic regression splines can be used to fit a non-linear profile to the time courses of tumor volume at each dose level. These non-linear profiles can then be related to dose within the mixed model. Tumor growth inhibition as a percent of vehicle can be calculated as a percent area under the fitted curve (AUC) per day in relation to the vehicle, using the following formula:
[formula] Using this formula, a TGI value of 100% indicates tumor stasis, greater than about 1% but less than about 100% indicates tumor growth inhibition, and greater than about 100% indicates tumor regression. Preparation of a Compound of Formula I
The efficacy of representative combinations of the invention were measured in vivo by implanting allografts or xenografts of cancer cells in rodents and treating the tumor-bearing animals with the combinations. Variable results are to be expected depending on the cell line, the presence or absence of certain mutations in the tumor cells, the sequence of administration the compounds, dosing regimen, and other factors. Subject mice were treated with drug(s) or control (Vehicle) and monitored over several weeks or more to measure the time to tumor doubling, log cell kill, and tumor inhibition.

Row | Structure (SMILES) | single agent effect on cell viability (MALME3 cells) | single agent effect on cell viability (MALME3M cells) | single agent tumor growth inhibition (TGI) ([1]; all doses of GDC-0973) | single agent tumor growth inhibition (TGI) ([1]; 50 mg/kg of GDC-0068) | single agent tumor growth inhibition (TGI) ([1]; higher doses of GDC-0068 (75 and 100 mg/kg))
1 | O=C(c1ccc(F)c(F)c1Nc1ccc(I)cc1F)N1CC(O)([C@@H]2CCCCN2)C1 [GDC-0973, (S)-(3,4-difluoro-2-(2-fluoro-4-iodophenylamino)phenyl)(3-hydroxy-3-(piperidin-2-yl)azetidin-1-yl)methanone] | resistant | sensitivity | Comparable single agent tumor growth inhibition (TGI) |  | 
2 | CC(C)NC[C@@H](C(=O)N1CCN(c2ncnc3c2[C@H](C)C[C@H]3O)CC1)c1ccc(Cl)cc1 [GDC-0068, (S)-2-(4-chlorophenyl)-1-(4-((5R,7R)-7-hydroxy-5-methyl-6,7-dihydro-5H-cyclopenta[d]pyrimidin-4-yl)piperazin-1-yl)-3-(isopropylamino)propan-1-one] |  | lack of single agent activity |  | No TGI | Comparable single agent tumor growth inhibition (TGI)
